Tests used:
[1] = molecular target: T1, human recombinant Aurora B (Homo sapiens, UniProt Q96GD4); test: Aurora B Kinase Biochemical Assay (ADP-Glo); conditions: selectivity ratio; Aurora B 10 nM, 114 μM ATP
T1 construct: purchased ThermoFisher PR9210B
Description: Activity of human recombinant Aurora B (ThermoFisher, cat #PR9210B) was measured by quantification of adenosine diphosphate (ADP) using the ADP-Glo Kinase Assay Kit (Promega, cat #V9102). Test compounds were solubilized in dimethyl sulfoxide (DMSO) and dispensed into 384-well white polystyrene nonbinding plates (Greiner, cat #781094) using the Echo acoustic dispenser (Labcyte Inc.) in a 11-point 3-fold titration in duplicates. 5 μL of 20 nM Aurora B in assay buffer (50 mM HEPES, pH 7.5, 0.01% Brij-35, 0.01% BSA, 10 mM MgCl2, 1 mM EGTA, 1 mM DTT) was added to the plates. Test compounds and Aurora B were incubated for 15 minutes at room temperature (RT). Then 5 μL of a 228 μM adenosine triphosphate (ATP) (Promega, cat #V915B) and 9.3 μM Myelin Basic Protein (MBP) (SignalChem, cat #M42-51N) substrate solution in assay buffer was added and the reaction mixture was incubated for 2 hours at RT. The final concentration of Aurora b, ATP and MBP in the reactions were 10 nM, 114 μM and 4.7 μM, respectively. Reactions were stopped and the remaining ATP depleted by adding 10 μL of ADP-Glo reagent (Promega, cat #V912B) and incubating for 40 minutes at RT. The simultaneous conversion of the remaining ADP to ATP and measurement of the newly synthesized ATP was achieved by addition of 20 μL Kinase Detection reagent (Promega, cat #V9141B), incubation for 30 min at RT, and luminescence detection using the EnVision plate reader (PerkinElmer). Reactions lacking Aurora B were used as […]. Reactions containing DMSO alone were used as […]. The IC50 values reported in Table 2 were determined using four parameter non-linear regression curve fit.

CHP134 = CHP134 CellTiter-Glo (CTG) Assay; format: cell-based; conditions: Homo sapiens, CHP-134, 120 h; viable cells by CellTiter-Glo after 5 days
Description: […] cells (DSMZ-German Collection of Microorganisms and Cell Cultures, Braunschweig Germany) were cultured in RPMI 1640 supplemented with 10% fetal bovine serum, penicillin (100 U/ml), 1% L-Glutamine and streptomycin ([…]). Cells were seeded (200 cells/well) in 384-well plates for 16 hours. On day two, nine serial 1:3 compound dilutions were made in DMSO in a 96-well plate. The compounds were then further diluted into growth media using a BRAVO robot (Agilent, Santa Clara, CA). The diluted compounds were then added to quadruplicate wells in the 384-well cell plate and incubated at 37° C. and 5% CO2. After 5 days, relative numbers of viable cells were measured by luminescence using CellTiter-Glo® (Promega) according to the manufacturer's instructions and read on a SPARK Multimode Microplate Reader (Tecan, Mannedorf Switzerland). The IC50 calculations for the values reported in Table 2 were carried out using Prism 6.0 software (GraphPad, San Diego).

T1 sequence (Q96GD4 whole entry): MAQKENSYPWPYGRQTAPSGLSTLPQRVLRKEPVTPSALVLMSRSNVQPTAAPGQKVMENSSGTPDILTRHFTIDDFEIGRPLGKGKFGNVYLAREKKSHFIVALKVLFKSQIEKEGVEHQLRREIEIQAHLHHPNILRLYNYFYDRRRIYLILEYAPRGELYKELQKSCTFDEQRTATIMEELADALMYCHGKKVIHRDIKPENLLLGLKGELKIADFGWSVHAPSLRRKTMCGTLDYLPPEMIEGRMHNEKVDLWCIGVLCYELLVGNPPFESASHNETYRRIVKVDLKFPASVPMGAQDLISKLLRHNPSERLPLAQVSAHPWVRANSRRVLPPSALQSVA

| Compound | [Aurora B IC50 (nM)]/[PLK4 IC50 (nM)] [1] | IC50 (CHP134) |
| --- | --- | --- |
| CCOc1cc(-n2cncn2)cnc1Nc1n[nH]c2cc([C@@H]3C[C@@]34C(=O)Nc3ccc(OC)cc34)ccc12 [Example 38, (1R,2S)-2-(3-{[3-ethoxy-5-(1H-1,2,4-triazol-1-yl)pyridin-2-yl]amino}-1H-indazol-6-yl)-5′-methoxyspiro[cyclopropane-1,3′-indol]-2′(1′H)-one] | 559.1 | 0.266 µM |
| COc1ccc2c(c1)[C@]1(C[C@H]1c1ccc3c(Nc4cc5c(cc4OC)S(=O)(=O)C=C5)n[nH]c3c1)C(=O)N2 [Example 6, 6-methoxy-5-({6-[(1R,2S)-5′-methoxy-2′-oxo-1′,2′-dihydrospiro[cyclopropane-1,3′-indol]-2-yl]-1H-indazol-3-yl}amino)-1H-1-benzothiophene-1,1-dione] | 427.6412 | 0.0394 µM |
| COc1ccc2c(c1)[C@]1(C[C@H]1c1ccc3c(Nc4nc(-c5cnn(C)c5)ncc4OC)n[nH]c3c1)C(=O)N2 [Example 31, (1R,2S)-5′-methoxy-2-(3-{[5-methoxy-2-(1-methyl-1H-pyrazol-4-yl)pyrimidin-4-yl]amino}-1H-indazol-6-yl)spiro[cyclopropane-1,3′-indol]-2′(1′H)-one] | 429.3981 | 0.135 µM |
| CCOc1cnc(-c2nccs2)cc1Nc1n[nH]c2cc([C@@H]3C[C@@]34C(=O)Nc3ccc(OC)cc34)ccc12 [Example 34, (1R,2S)-2-(3-{[5-ethoxy-2-(1,3-thiazol-2-yl)pyridin-4-yl]amino}-1H-indazol-6-yl)-5′-methoxyspiro[cyclopropane-1,3′-indol]-2′(1′H)-one] | 46598.3224 | 0.139 µM |
| COc1ccc2c(c1)[C@]1(C[C@H]1c1ccc3c(Nc4nc(-c5cnn(C)c5)cnc4OC)n[nH]c3c1)C(=O)N2 [Example 24, (1R,2S)-5′-methoxy-2-(3-{[3-methoxy-6-(1-methyl-1H-pyrazol-4-yl)pyrazin-2-yl]amino}-1H-indazol-6-yl)spiro[cyclopropane-1,3′-indol]-2′(1′H)-one] | 263.2352 | 0.0499 µM |
| COc1ccc2c(c1)[C@]1(C[C@H]1c1ccc3c(Nc4nc(-c5ncco5)ccc4OC)n[nH]c3c1)C(=O)N2 [Example 4, (1R,2S)-5′-methoxy-2-(3-{[3-methoxy-6-(1,3-oxazol-2-yl)pyridin-2-yl]amino}-1H-indazol-6-yl)spiro[cyclopropane-1,3′-indol]-2′(1′H)-one] | 549.2668 | 0.0531 µM |
| COc1ccc2c(c1)[C@]1(C[C@H]1c1ccc3c(Nc4cc(-c5cnn(CC(F)F)c5)ccc4OC)n[nH]c3c1)C(=O)N2 [Example 39, (1R,2S)-2-(3-{5-[1-(2,2-difluoroethyl)-1H-pyrazol-4-yl]-2-methoxyanilino}-1H-indazol-6-yl)-5′-methoxyspiro[cyclopropane-1,3′-indol]-2′(1′H)-one] | 764.1 | 0.202 µM |
| CCS(=O)(=O)c1ccc(Nc2n[nH]c3cc([C@@H]4C[C@@]45C(=O)Nc4ccc(OC)cc45)ccc23)c(OC)c1 [Example 5, (1R,2S)-2-{3-[4-(ethanesulfonyl)-2-methoxyanilino]-1H-indazol-6-yl}-5′-methoxyspiro[cyclopropane-1,3′-indol]-2′(1′H)-one] | 238.2702 | 0.0391 µM |
| CCOc1ccc(-c2nccs2)cc1Nc1n[nH]c2cc([C@@H]3C[C@@]34C(=O)Nc3ccc(OC)cc34)ccc12 [Example 33, (1R,2S)-2-{3-[2-ethoxy-5-(1,3-thiazol-2-yl)anilino]-1H-indazol-6-yl}-5′-methoxyspiro[cyclopropane-1,3′-indol]-2′(1′H)-one] | 45644.0903 | 0.0414 µM |
| CCOc1cc2c(ccc[n+]2[O-])cc1Nc1n[nH]c2cc([C@@H]3C[C@@]34C(=O)Nc3ccc(OC)cc34)ccc12 [Example 12, 7-ethoxy-6-((6-((1R,2S)-5′-methoxy-2′-oxospiro[cyclopropane-1,3′-indolin]-2-yl)-1H-indazol-3-yl)amino)quinoline 1-oxide] | 810 | 1.1 µM |
| COc1ccc2c(c1)[C@]1(C[C@H]1c1ccc3c(Nc4nc(-c5ncco5)cnc4OC)n[nH]c3c1)C(=O)N2 [Example 19, (1R,2S)-5′-methoxy-2-(3-{[3-methoxy-6-(1,3-oxazol-2-yl)pyrazin-2-yl]amino}-1H-indazol-6-yl)spiro[cyclopropane-1,3′-indol]-2′(1′H)-one] | 460 | 0.17 µM |
| COc1ccc2c(c1)[C@]1(C[C@H]1c1ccc3c(Nc4cc(-c5cnn(CC(F)F)c5)cnc4OC)n[nH]c3c1)C(=O)N2 [Example 46, (1R,2S)-2-(3-((5-(1-(2,2-difluoroethyl)-1H-pyrazol-4-yl)-2-methoxypyridin-3-yl)amino)-1H-indazol-6-yl)-5′-methoxyspiro[cyclopropane-1,3′-indolin]-2′-one] | 469.6557 | 0.37 µM |
| COc1ccc2c(c1)[C@]1(C[C@H]1c1ccc3c(Nc4cc(-c5cnn(C)c5)ncc4OC)n[nH]c3c1)C(=O)N2 [Example 27, (1R,2S)-5′-methoxy-2-(3-{[5-methoxy-2-(1-methyl-1H-pyrazol-4-yl)pyridin-4-yl]amino}-1H-indazol-6-yl)spiro[cyclopropane-1,3′-indol]-2′(1′H)-one] | 954.5884 | 0.463 µM |
| COc1ccc2c(c1)[C@]1(C[C@H]1c1ccc3c(Nc4cc5c(cc4OC)S(=O)(=O)CC5)n[nH]c3c1)C(=O)N2 [Example 1, 6-methoxy-5-({6-[(1R,2S)-5′-methoxy-2′-oxo-1′,2′-dihydrospiro[cyclopropane-1,3′-indol]-2-yl]-1H-indazol-3-yl}amino)-2,3-dihydro-1H-1-benzothiophene-1,1-dione] | 791.6196 | 0.242 µM |
| CCOc1cc(-c2cn(C)cn2)ccc1Nc1n[nH]c2cc([C@@H]3C[C@@]34C(=O)Nc3ccc(OC)cc34)ccc12 [Example 29, (1R,2S)-2-{3-[2-ethoxy-4-(1-methyl-1H-imidazol-4-yl)anilino]-1H-indazol-6-yl}-5′-methoxyspiro[cyclopropane-1,3′-indol]-2′(1′H)-one] | 211.2020 | 0.466 µM |
| COc1ccc2c(c1)[C@]1(C[C@H]1c1ccc3c(Nc4cc(-c5cocn5)ccc4OC)n[nH]c3c1)C(=O)N2 [Example 16, (1R,2S)-5′-methoxy-2-{3-[2-methoxy-5-(1,3-oxazol-4-yl)anilino]-1H-indazol-6-yl}spiro[cyclopropane-1,3′-indol]-2′(1′H)-one] | 730.6487 | 0.16 µM |
| COc1ccc2c(c1)[C@]1(C[C@H]1c1ccc3c(Nc4cc(-c5cnco5)ccc4OC)n[nH]c3c1)C(=O)N2 [Example 18, (1R,2S)-5′-methoxy-2-{3-[2-methoxy-5-(1,3-oxazol-5-yl)anilino]-1H-indazol-6-yl}spiro[cyclopropane-1,3′-indol]-2′(1′H)-one] | 520 | 0.17 µM |
| CCOc1cc(-n2cncn2)ccc1Nc1n[nH]c2cc([C@@H]3C[C@@]34C(=O)Nc3ccc(OC)cc34)ccc12 [Example 10, (1R,2S)-2-{3-[2-ethoxy-4-(1H-1,2,4-triazol-1-yl)anilino]-1H-indazol-6-yl}-5′-methoxyspiro[cyclopropane-1,3′-indol]-2′(1′H)-one] | 396.7684 | 0.12 µM |
| CCOc1ccc(-c2nccs2)nc1Nc1n[nH]c2cc([C@@H]3C[C@@]34C(=O)Nc3ccc(OC)cc34)ccc12 [Example 28, (1R,2S)-2-(3-{[3-ethoxy-6-(1,3-thiazol-2-yl)pyridin-2-yl]amino}-1H-indazol-6-yl)-5′-methoxyspiro[cyclopropane-1,3′-indol]-2′(1′H)-one] | 1526.5629 | 0.0167 µM |
| CCOc1ncc(-c2nccs2)nc1Nc1n[nH]c2cc([C@@H]3C[C@@]34C(=O)Nc3ccc(OC)cc34)ccc12 [Example 35, (1R,2S)-2-(3-{[3-ethoxy-6-(1,3-thiazol-2-yl)pyrazin-2-yl]amino}-1H-indazol-6-yl)-5′-methoxyspiro[cyclopropane-1,3′-indol]-2′(1′H)-one] | 2740.5325 | 0.0138 µM |
